# pEC50: −log10 of the molar value. Where two headings read alike, the source gives them in different places.
# What was measured:
# [1] = system: genotype A, "Long" strain RSV; experiment: RSV-A assay (CPE protection in Hep-2 cells, ATPlite readout); format: cell-based, Human respiratory syncytial virus (HRSV); settings: human respiratory syncytial virus, MOI 0.1, CPE protection
# Outline: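 Hep-2, 8,000 cells/well, MOI 0.1 (PFU- or TCID50-based); 2-fold compound series, duplicates; 5 d incubation; ATPlite luminescence readout; EC50.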
# [2] = system: HMPV clinical isolate TN/1501/A1; experiment: HMPV antiviral assay Method-B (clinical isolate TN/1501/A1 in LLC-MK2 cells, ATP-Lite readout); format: cell-based, Human metapneumovirus (HMPV); settings: human metapneumovirus, LLC-MK2, 144 h, hMPV WT1501 (clinical isolate TN/1501/A1), 6 days
# Outline: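 LLC-MK2 cells infected in suspension with TN/1501/A1 at MOI 0.014 in serum-free medium with 2 μg/mL TPCK-trypsin (final), incubated 6 days at 37° C. Compounds tested in duplicate, 10-point 3-fold dilutions from 10 μM. Cell health read by ATP-Lite luminescence, normalised to virus-only and cells-only controls; EC50 by four-parameter logistic fit.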
# [3] = genotype A “Long” strain RSV, read-out: Human RSV-A (“Long”)
# [4] = RSV-A Long strain, read-out: Human RSV-A (“Long”) EC50
"pEC50 [1, 3]",pEC50 [2],"pEC50 [1, 4]",Compound
> 6.70,> 6.30,,C[C@]1(C(N)=O)COc2c1cc([C@@](O)(CNC(=O)c1cc(F)c3nn(C4CC4)cc3c1)C(F)(F)F)nc2-c1ccc2c(c1)OC(F)(F)O2 [Example 544]
,> 6.30,> 6.70,COc1cc(C(=O)NC[C@](O)(c2cc3c(c(-c4cc(Br)c(F)cc4F)n2)OC[C@]3(C)C(N)=O)C2CC2)cc2cn(C(F)F)nc12 [Example 1097]
> 6.70,> 6.30,,COc1cc(C(=O)NC[C@](O)(c2cc3c(c(-c4ccc(F)c(F)c4F)n2)OC[C@]3(C)C(N)=O)C(F)(F)F)cc2cc(Cl)c(C)nc12 [Example 506]
> 6.70,< 6.30,,C[C@]1(C(N)=O)COc2c1cc([C@@](O)(CNC(=O)c1cc(F)c3nc(N)sc3c1)C1(F)CC1)nc2-c1ccc(F)cc1 [Example 709]
,> 6.30,> 6.70,C[C@]1(C(N)=O)COc2c1cc([C@@](O)(CNC(=O)c1cc(F)c3nn(C4(F)CC4)cc3c1)C1CC1)nc2-c1ccc2c(c1)OC(F)(F)O2 [Example 848]
,> 6.30,> 6.70,Cc1cnc2c(Cl)cc(C(=O)NC[C@](O)(c3cc4c(c(-c5cc(F)c(Cl)cc5F)n3)OC[C@]4(C)C(N)=O)C3CC3)cc2c1 [Example 1181]
> 6.70,> 6.30,,C[C@]1(C(N)=O)COc2c1cc([C@@](O)(CNC(=O)c1cc(F)c3nn(C4CC4)cc3c1)C1CC1)nc2-c1csc2c(F)cccc12 [Example 608]
> 6.70,< 6.30,,COc1cc(C(=O)NC[C@](O)(c2cc3c(c(-c4cc(Cl)c(F)c(Cl)c4)n2)OC[C@]3(C)C(N)=O)C(F)(F)F)cc2cc(Cl)c(C)nc12 [Example 674]
> 6.70,< 6.30,,C[C@]1(C(N)=O)COc2c1cc([C@@](O)(CNC(=O)c1cc(OC3CC3)n3nc(C4CC4)cc3c1)C(F)(F)F)nc2-c1csc2c(F)cccc12 [Example 597]
,< 6.30,< 6.70,COc1cc(C(=O)NC[C@@](O)(c2cc3c(c(C4=CCC(F)(F)CC4)n2)OC[C@]3(C)C(N)=O)C(F)(F)F)cc2cn(C3CC3)nc12 [Example 1229]
,< 6.30,< 6.70,COc1cc(C(=O)NC[C@](O)(c2cc3c(c(N4CCOCC4)n2)OC[C@]3(C)C(N)=O)C(F)(F)F)cc2cn(C3CC3)nc12 [Example 1269]
,> 6.30,> 6.70,COc1cc(C(=O)NC[C@](O)(c2cc3c(c(-c4ccc(F)c(C(F)(F)F)c4)n2)OC[C@]3(C)C(N)=O)C2CC2)cc2cn(C3CC3)nc12 [Example 871]
,< 6.30,> 6.70,COc1cc(C(=O)NC[C@](O)(c2cc3c(c(-c4ccc(F)cc4)n2)OC[C@]3(C(N)=O)C(F)F)C(F)(F)F)cc2cc(Cl)c(C)nc12 [Example 1000]
,> 6.30,> 6.70,COc1cc(C(=O)NC[C@](O)(c2cc3c(c(-c4ccc(Cl)c(F)c4F)n2)OC[C@]3(C)C(N)=O)C(F)(F)F)cc2cn(C3CC3)nc12 [Example 929]
,> 6.30,> 6.70,COc1cc(C(=O)NC[C@](O)(c2cc3c(c(-c4ccc(F)cc4)n2)OC[C@]3(CF)C(N)=O)C2CC2)cc2cc(C3CC3)nn12 [Example 1060]
,> 6.30,> 6.70,COc1cc(C(=O)NC[C@](O)(c2cc3c(c(-c4ccc(F)c(Br)c4F)n2)OC[C@]3(C)C(N)=O)C(F)(F)F)cc2cn(C3CC3)nc12 [Example 956]
> 6.70,< 6.30,,COc1cc(C(=O)NC[C@](O)(c2cc3c(c(-c4ccc(C(F)(F)F)c(Cl)c4)n2)OC[C@]3(C)C(N)=O)C(F)(F)F)cc2cc(Cl)c(C)nc12 [Example 581]
,> 6.30,> 6.70,COc1cc(C(=O)NC[C@](O)(c2cc3c(c(-c4ccc(F)c(Cl)c4)n2)OC[C@]3(CF)C(N)=O)C(F)(F)F)cc2cn(C3CC3)nc12 [Example 1052]

# Continued, compound first:
Compound,"pEC50 [1, 3]",pEC50 [2],"pEC50 [1, 4]"
COc1cc(C(=O)NC[C@](O)(c2cc3c(c(-c4ccc5c(c4)OC(F)(F)O5)n2)OC[C@]3(C)C(N)=O)C2(F)CC2)cc2cc(Cl)c(C)nc12 [Example 717],> 6.70,> 6.30,
COc1cc(C(=O)NC[C@](O)(c2cc3c(c(-c4ccc(F)c(C(F)(F)F)c4)n2)OC[C@]3(C)C(N)=O)C(F)(F)F)cc2cn(C3CC3)nc12 [Example 974],,> 6.30,> 6.70
C[C@]1(C(N)=O)COc2c1cc([C@@](O)(CNC(=O)c1cc(OCCF)c3nn(C4(F)CC4)cc3c1)C(F)(F)F)nc2-c1cc(Cl)c(F)cc1F [Example 618],> 6.70,> 6.30,
C[C@]1(C(N)=O)COc2c1cc([C@@](O)(CNC(=O)c1ccc(F)c(NC(=O)NC3CC3)c1)C(F)(F)F)nc2-c1ccc(F)cc1 [Example 623],> 6.70,< 6.30,
C[C@]1(C(N)=O)COc2c1cc([C@@](O)(CNC(=O)c1cc(F)c3nn(C4CC4)cc3c1)C1CC1)nc2-c1ccc2c(c1)OC(F)(F)O2 [Example 545],> 6.70,> 6.30,
COc1cc(C(=O)NC[C@](O)(c2nc(-c3ccc(F)c(Cl)c3F)c3c(c2F)[C@@](C)(C(N)=O)CO3)C2CC2)cc2cn(C(F)F)nc12 [Example 1161],,> 6.30,> 6.70
Cc1nc2c(OC3CC3)cc(C(=O)NC[C@](O)(c3cc4c(c(-c5ccc(F)c(F)c5F)n3)OC[C@]4(C)C(N)=O)C(F)(F)F)cc2cc1Cl [Example 514],> 6.70,> 6.30,
Cc1cnc2c(OC(F)F)cc(C(=O)NC[C@](O)(c3cc4c(c(-c5ccc(F)cc5Cl)n3)OC[C@]4(C)C(N)=O)C(F)(F)F)cc2c1 [Example 524],> 6.70,> 6.30,
COc1cc(C(=O)NC[C@](O)(c2cc3c(c(-c4ccc5c(c4)OC(F)(F)O5)n2)OC[C@]3(C)C(N)=O)C2CC2)cc2cc(Br)cnc12 [Example 543],> 6.70,> 6.30,
COc1cc(C(=O)NC[C@](O)(c2cc3c(c(-c4ccc(F)cc4)n2)OC[C@]3(C)C(N)=O)C2(F)CC2)cc2cn(C3(F)CC3)nc12 [Example 756],> 6.70,> 6.30,
C[C@]1(C(N)=O)COc2c1cc([C@@](O)(CNC(=O)c1cc(F)c3nc(N)sc3c1)C1CC1)nc2-c1ccc2c(c1)OC(F)(F)O2 [Example 827],,> 6.30,> 6.70
COc1cc(C(=O)NC[C@](O)(c2cc3c(c(-c4cc(F)c(F)c(Cl)c4)n2)OC[C@]3(C)C(N)=O)C2CC2)cc2cc(Cl)c(C)nc12 [Example 786],> 6.70,> 6.30,
C[C@]1(C(N)=O)COc2c1cc([C@@](O)(CNC(=O)c1ccn3nc(C4CC4)cc3c1)C1CC1)nc2-c1ccc2c(c1)OC(F)(F)O2 [Example 824],> 6.70,> 6.30,
COc1cc(C(=O)NC[C@](O)(c2cc3c(c(-c4ccc5c(c4)OC(F)(F)O5)n2)OC[C@]3(C)C(N)=O)C2CC2)cc2cn(C3(F)CC3)nc12 [Example 835],,> 6.30,> 6.70
COc1cc(C(=O)NC[C@](O)(c2cc3c(c(-c4cc(F)c(F)cc4F)n2)OC[C@]3(C)C(N)=O)C(F)(F)F)cc2cn(C(F)F)nc12 [Example 1136],,> 6.30,> 6.70
Cc1cnc2c(OC(F)F)cc(C(=O)NC[C@](O)(c3cc4c(c(-c5cc(Cl)c(F)cc5F)n3)OC[C@]4(C)C(N)=O)C3CC3)cc2c1 [Example 665],> 6.70,> 6.30,
COc1cc(C(=O)NC[C@](O)(c2cc3c(c(-c4ccc(F)c(Cl)c4)n2)OC[C@]3(C)C(N)=O)C2CC2)cc2cn(C(F)F)nc12 [Example 574],> 6.70,> 6.30,

# Reference: patent US12612412B2, “Antiviral heterocyclic compounds” (Enanta Pharmaceuticals, Inc., priority 2021, dated 2026)
